Common to all, as to test: two-electrode voltage clamp, Xenopus oocytes
Common to all, as to type: cell-based

In test [1] the target is T1, GluN1/GluN2B receptor (rat GluN1-1a, mouse GluN2B) (Rattus norvegicus; Mus musculus, UniProt P35439+Q01097).
T1 construct: gene Grin1; full-length receptors from pcDNA3-based plasmids, Xenopus laevis oocytes, cDNA ratio 1:1; heterotetramer, usually two GluN1 and two GluN2
An excerpt: (§1) two-electrode voltage clamp, Xenopus oocytes on GluN1/GluN2B receptor (rat GluN1-1a, mouse GluN2B)

In test [2] the target is T2, GluN1/GluN2B receptor (rat GluN1-1a, mouse GluN2B) (Rattus norvegicus; Mus musculus, UniProt P35439+Q01097, P35439:L135H).
T2 construct: gene Grin1; full-length receptors from pcDNA3-based plasmids, Xenopus laevis oocytes, cDNA ratio 1:1; heterotetramer, usually two GluN1 and two GluN2
From the text: as §1

Test [3] deals with T3, GluN1/GluN2B receptor (rat GluN1-1a, mouse GluN2B) (Rattus norvegicus; Mus musculus, UniProt P35439+Q01097, P35439:L135W).
T3 construct: gene Grin1; full-length receptors from pcDNA3-based plasmids, Xenopus laevis oocytes, cDNA ratio 1:1; heterotetramer, usually two GluN1 and two GluN2
From the text: as §1

Test [4] deals with T4, GluN1/GluN2B receptor (rat GluN1-1a, mouse GluN2B) (Rattus norvegicus; Mus musculus, UniProt P35439+Q01097, P35439:Y109C).
T4 construct: gene Grin1; full-length receptors from pcDNA3-based plasmids, Xenopus laevis oocytes, cDNA ratio 1:1; heterotetramer, usually two GluN1 and two GluN2
T4 sequence (Q01097 27-1482, other chains not shown): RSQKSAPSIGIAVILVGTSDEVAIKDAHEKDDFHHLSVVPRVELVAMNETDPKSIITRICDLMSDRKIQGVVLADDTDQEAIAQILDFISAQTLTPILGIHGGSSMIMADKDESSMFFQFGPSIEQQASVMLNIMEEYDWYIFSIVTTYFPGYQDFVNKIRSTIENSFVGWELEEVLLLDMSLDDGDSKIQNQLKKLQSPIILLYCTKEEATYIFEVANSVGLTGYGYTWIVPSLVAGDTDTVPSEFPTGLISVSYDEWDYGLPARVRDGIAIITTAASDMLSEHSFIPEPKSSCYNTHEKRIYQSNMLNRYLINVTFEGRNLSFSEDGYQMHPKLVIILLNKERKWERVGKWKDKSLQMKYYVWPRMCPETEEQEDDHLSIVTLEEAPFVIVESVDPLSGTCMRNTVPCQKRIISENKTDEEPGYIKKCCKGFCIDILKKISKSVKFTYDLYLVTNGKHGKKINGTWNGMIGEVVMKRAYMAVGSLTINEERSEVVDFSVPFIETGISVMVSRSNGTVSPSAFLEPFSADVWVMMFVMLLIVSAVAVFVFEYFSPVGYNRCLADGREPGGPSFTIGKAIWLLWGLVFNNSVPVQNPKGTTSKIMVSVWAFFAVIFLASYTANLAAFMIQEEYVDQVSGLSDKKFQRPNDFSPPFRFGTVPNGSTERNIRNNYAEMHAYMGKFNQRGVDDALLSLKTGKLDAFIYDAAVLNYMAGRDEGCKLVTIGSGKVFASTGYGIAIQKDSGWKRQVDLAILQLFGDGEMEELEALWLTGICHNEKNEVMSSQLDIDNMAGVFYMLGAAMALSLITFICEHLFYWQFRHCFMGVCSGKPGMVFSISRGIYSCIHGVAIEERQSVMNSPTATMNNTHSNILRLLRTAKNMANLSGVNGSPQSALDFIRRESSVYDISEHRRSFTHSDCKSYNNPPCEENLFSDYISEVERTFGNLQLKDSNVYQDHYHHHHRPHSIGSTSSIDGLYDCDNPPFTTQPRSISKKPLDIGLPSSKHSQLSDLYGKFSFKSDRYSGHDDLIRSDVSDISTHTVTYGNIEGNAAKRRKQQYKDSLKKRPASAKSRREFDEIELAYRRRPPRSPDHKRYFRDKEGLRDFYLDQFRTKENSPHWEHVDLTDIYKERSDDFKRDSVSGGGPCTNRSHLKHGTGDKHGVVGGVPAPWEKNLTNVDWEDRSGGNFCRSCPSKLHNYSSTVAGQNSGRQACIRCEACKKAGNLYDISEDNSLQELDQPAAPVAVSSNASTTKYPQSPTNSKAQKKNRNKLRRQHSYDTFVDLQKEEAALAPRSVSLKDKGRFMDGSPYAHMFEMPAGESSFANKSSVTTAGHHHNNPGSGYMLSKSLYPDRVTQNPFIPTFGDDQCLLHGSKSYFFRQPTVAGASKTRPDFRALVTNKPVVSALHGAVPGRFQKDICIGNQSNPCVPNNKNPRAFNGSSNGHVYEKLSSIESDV
From the text: as §1

Test [5] concerns the target T5, GluN1/GluN2B receptor (rat GluN1-1a, mouse GluN2B) (Rattus norvegicus; Mus musculus, UniProt P35439+Q01097, P35439:Y109S).
T5 construct: gene Grin1; full-length receptors from pcDNA3-based plasmids, Xenopus laevis oocytes, cDNA ratio 1:1; heterotetramer, usually two GluN1 and two GluN2
From the text: as §1

Test [6] addresses T6, GluN1/GluN2B receptor (rat GluN1-1a, mouse GluN2B) (Rattus norvegicus; Mus musculus, UniProt P35439+Q01097, Q01097:A135G).
T6 construct: gene Grin1; full-length receptors from pcDNA3-based plasmids, Xenopus laevis oocytes, cDNA ratio 1:1; heterotetramer, usually two GluN1 and two GluN2
From the text: as §1

Test [7] addresses T7, GluN1/GluN2B receptor (rat GluN1-1a, mouse GluN2B) (Rattus norvegicus; Mus musculus, UniProt P35439+Q01097, Q01097:A135P).
T7 construct: gene Grin1; full-length receptors from pcDNA3-based plasmids, Xenopus laevis oocytes, cDNA ratio 1:1; heterotetramer, usually two GluN1 and two GluN2
From the text: as §1

For test [8], the target named is T8, GluN1/GluN2B receptor (rat GluN1-1a, mouse GluN2B) (Rattus norvegicus; Mus musculus, UniProt P35439+Q01097, Q01097:F114S).
T8 construct: gene Grin1; full-length receptors from pcDNA3-based plasmids, Xenopus laevis oocytes, cDNA ratio 1:1; heterotetramer, usually two GluN1 and two GluN2
From the text: as §1

Test [9] concerns the target T9, GluN1/GluN2B receptor (rat GluN1-1a, mouse GluN2B) (Rattus norvegicus; Mus musculus, UniProt P35439+Q01097, Q01097:F176A).
T9 construct: gene Grin1; full-length receptors from pcDNA3-based plasmids, Xenopus laevis oocytes, cDNA ratio 1:1; heterotetramer, usually two GluN1 and two GluN2
From the text: as §1

In test [10] the target is T10, GluN1/GluN2B receptor (rat GluN1-1a, mouse GluN2B) (Rattus norvegicus; Mus musculus, UniProt P35439+Q01097, Q01097:P177C).
T10 construct: gene Grin1; full-length receptors from pcDNA3-based plasmids, Xenopus laevis oocytes, cDNA ratio 1:1; heterotetramer, usually two GluN1 and two GluN2
From the text: as §1

Test [11] addresses T11, GluN1/GluN2B receptor (rat GluN1-1a, mouse GluN2B) (Rattus norvegicus; Mus musculus, UniProt P35439+Q01097, Q01097:Q110G).
T11 construct: gene Grin1; full-length receptors from pcDNA3-based plasmids, Xenopus laevis oocytes, cDNA ratio 1:1; heterotetramer, usually two GluN1 and two GluN2
From the text: as §1

Here are results for one molecule from publication PMC4859819 (Molecular Pharmacology, 2016).

T11 sequence (Q01097 27-1482 Q110G, other chains not shown): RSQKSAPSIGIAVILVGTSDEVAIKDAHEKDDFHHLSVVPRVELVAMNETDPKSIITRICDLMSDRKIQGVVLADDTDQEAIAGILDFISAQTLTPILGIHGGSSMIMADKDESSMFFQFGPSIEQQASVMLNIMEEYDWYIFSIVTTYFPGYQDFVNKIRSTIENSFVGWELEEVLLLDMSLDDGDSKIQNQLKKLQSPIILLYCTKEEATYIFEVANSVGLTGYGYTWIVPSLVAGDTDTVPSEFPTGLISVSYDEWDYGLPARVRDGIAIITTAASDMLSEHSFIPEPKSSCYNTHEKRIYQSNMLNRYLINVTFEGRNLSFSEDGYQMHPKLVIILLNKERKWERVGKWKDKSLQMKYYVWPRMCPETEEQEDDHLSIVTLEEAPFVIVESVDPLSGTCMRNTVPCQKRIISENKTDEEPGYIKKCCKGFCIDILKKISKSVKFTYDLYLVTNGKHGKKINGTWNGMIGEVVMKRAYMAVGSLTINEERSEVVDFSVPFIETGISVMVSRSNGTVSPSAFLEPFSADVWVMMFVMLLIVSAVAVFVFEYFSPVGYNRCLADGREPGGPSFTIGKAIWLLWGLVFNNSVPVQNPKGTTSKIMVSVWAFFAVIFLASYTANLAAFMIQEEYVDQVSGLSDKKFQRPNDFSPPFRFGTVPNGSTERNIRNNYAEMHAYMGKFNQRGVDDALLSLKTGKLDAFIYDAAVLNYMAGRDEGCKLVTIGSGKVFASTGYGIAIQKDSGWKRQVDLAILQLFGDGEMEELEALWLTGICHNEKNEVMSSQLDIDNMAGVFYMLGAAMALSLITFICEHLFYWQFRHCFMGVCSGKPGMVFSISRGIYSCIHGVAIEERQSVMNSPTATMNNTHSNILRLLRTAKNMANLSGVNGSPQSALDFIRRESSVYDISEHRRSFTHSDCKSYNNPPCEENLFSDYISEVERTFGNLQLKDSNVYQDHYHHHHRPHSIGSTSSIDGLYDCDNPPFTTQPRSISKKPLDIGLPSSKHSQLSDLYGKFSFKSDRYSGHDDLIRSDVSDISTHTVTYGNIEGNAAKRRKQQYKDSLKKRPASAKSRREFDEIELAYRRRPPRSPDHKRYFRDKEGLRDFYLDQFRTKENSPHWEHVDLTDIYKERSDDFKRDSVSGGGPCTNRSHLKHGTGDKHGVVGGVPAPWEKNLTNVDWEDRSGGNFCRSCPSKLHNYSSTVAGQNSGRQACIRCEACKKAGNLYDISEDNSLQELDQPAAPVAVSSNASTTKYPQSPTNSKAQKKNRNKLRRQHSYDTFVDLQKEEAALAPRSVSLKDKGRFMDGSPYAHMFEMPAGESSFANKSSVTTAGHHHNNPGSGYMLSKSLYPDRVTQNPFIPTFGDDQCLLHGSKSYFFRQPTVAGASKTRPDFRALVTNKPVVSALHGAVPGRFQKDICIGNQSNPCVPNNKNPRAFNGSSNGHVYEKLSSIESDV
T7 sequence (Q01097 27-1482 A135P, other chains not shown): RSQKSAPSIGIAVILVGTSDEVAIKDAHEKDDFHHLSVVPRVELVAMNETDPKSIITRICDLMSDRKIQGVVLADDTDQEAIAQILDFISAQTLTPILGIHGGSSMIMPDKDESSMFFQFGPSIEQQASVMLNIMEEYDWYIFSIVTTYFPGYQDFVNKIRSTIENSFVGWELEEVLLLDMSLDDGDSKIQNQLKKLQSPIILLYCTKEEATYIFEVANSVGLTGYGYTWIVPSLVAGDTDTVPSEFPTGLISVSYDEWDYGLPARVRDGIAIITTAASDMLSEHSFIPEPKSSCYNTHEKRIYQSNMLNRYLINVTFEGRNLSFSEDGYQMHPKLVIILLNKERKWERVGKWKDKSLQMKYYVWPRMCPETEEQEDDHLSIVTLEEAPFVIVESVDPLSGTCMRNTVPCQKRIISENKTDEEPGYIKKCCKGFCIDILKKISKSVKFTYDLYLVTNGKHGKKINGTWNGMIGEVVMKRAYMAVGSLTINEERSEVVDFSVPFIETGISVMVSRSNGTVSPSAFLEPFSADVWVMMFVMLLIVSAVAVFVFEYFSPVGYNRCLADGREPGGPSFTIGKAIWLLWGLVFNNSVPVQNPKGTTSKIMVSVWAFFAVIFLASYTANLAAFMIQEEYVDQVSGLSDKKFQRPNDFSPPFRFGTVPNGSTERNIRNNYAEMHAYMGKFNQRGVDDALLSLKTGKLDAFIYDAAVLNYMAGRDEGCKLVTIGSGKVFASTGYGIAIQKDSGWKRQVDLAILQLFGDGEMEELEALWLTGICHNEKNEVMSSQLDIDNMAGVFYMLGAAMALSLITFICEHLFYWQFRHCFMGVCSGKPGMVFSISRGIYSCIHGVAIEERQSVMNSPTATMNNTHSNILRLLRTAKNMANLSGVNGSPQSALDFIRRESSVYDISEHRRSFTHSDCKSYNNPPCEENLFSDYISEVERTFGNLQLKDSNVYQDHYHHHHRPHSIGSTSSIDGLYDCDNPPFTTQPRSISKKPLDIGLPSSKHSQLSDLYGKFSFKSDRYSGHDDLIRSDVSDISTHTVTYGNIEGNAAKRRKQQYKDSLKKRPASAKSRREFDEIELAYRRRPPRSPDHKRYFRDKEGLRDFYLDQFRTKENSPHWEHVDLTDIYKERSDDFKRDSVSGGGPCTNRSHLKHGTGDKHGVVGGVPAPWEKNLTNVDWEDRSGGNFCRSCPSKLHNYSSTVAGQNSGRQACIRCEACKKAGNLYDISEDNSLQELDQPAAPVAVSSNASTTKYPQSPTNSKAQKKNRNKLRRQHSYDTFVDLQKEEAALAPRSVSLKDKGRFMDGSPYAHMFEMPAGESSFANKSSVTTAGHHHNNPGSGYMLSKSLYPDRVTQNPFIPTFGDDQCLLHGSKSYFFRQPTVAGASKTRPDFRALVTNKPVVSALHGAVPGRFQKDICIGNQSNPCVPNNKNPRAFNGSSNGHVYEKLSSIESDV

As to `Cc1nccn1Cc1cc(-c2ccc(F)c(C(F)F)c2)cnn1` [compound 1, 5-(3-(difluoromethyl)-4-fluorophenyl)-3-((2-methyl-1H-imidazol-1-yl)methyl)pyridazine], the IC50 in test [1] came out at 12 ± 0.2 nM; in [2] it was 71 ± 7 nM; in test [3], 9 ± 1 nM; in test [4], 7300 ± 260 nM; in test [5], 9620 ± 700 nM; in [6] it was 72 ± 7 nM. Besides, the IC50 in test [7] turned out to be 404 ± 15 nM; in [8], 676 ± 10 nM; in [9] it was 11400 ± 1000 nM; in [10], 75 ± 12 nM; in test [11], 502 ± 14 nM.

The term IC50 denotes the point on the concentration scale where inhibition reaches its midpoint. Higher therefore signals weaker potency in that assay.
